Assay [1] concerns CD4+ T-cells. The experiment in a line: Immunostimulation assay with anti-CD3/28 stimulated T-cells, CD69 expression by flow cytometry. The class given is cell-based, human. As to conditions: T-cell; purified human CD4+ and CD8+ T-cells, 1 µg/ml anti-CD3, 1 µg/ml anti-CD28, 16 hours, surface FACS; read-out: EC50 CD4+. In outline:
(§1)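 Human CD4+/CD8+ T-cells purified from buffy-coat PBMCs were stimulated with 1 µg/ml anti-CD3 and 1 µg/ml anti-CD28 plus compound (0.001–30 µM) for 16 h at 37 °C. CD69 measured by flow cytometry; DMSO set minimal, CD3/28 Dynabeads maximal activation; EC50 by variable-slope fit.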
For orientation: In flow cytometry, cells or beads pass a laser one at a time.

In assay [2] the test system is CD8+ T-cells. Described as above. The class given is cell-based, human. As to conditions: T-cell; purified human CD4+ and CD8+ T-cells, 1 µg/ml anti-CD3, 1 µg/ml anti-CD28, 16 hours, surface FACS; read-out: EC50 CD8+. In outline:
as §1

The subject of assay [3] is B16-SIY melanoma. The experiment in a line: Efficacy on B16-SIY melanoma, in vivo tumor growth. As to conditions: p.o., over the course of 21 days, C57BL/6 mice, B16-SIY intradermal. How it is done:
Eight-weeks-old C57BL/6 mice were purchased from Charles River. All animal experiments were in accordance with institutional guidelines of the Research Institute of Molecular Pathology (Austria) and approved according to the European Community rules of animal care with the permission of the Austrian Ministry of Science.
B16-SIY melanoma cells were cultured in DMEM containing 10 % FCS, 1 % PenStrep and 1 % glutamine and grown in a humidified incubator at 37 °C and 5 % CO2. For tumor inoculations sub-confluent B16-SIYcells were trypsinized, washed, counted and resuspended in PBS to a final concentration of 1×10^7 B16-SIY cells/ml.
30 C57BL/6 mice were inoculated intradermally with 1×10^6 B16-SIY cells and tumor bearing mice randomly assigned to 3 different groups […] post transplantation: Compound 142 30 mg/kg 3 days post B16-SIY inoculation and subsequent daily administration of 10 mg/kg (10 mice), Compound 142 9 mg/kg 3 days post B16-SIY inoculation and subsequent daily treatment of 3 mg/kg (10 mice), or vehicle control (10 mice). Compound 142 was diluted in 10 % DMSO, 20 % PEG400, 21 % HPbCD, 0.35 % HPMC and 48.65 % H2O and mice treated p.o. with 2 different treatment schedules: d3: 30 mg/kg + QD: 10 mg/kg or d3: 9 mg/kg + QD: 3 mg/kg (Figure 1). […] Tumors were measured daily and mice sacrificed 21 days post B16-SIY inoculation (Figure 1). […]

Consider `CC(O)Cn1c(=O)[nH]c(=O)c2c1nc(-c1ccc(Oc3ccc(OC(F)(F)F)cc3)cc1)n2C` (stereo not drawn) [Compound 142, 3-(2-hydroxypropyl)-7-methyl-8-(4-(4-(trifluoromethoxy)phenoxy)phenyl)-3,7-dihydro-1H-purine-2,6-dione], for which the EC50 in assay [1] and in assay [2] was 0.5 to 1 µM throughout. Besides, the “Tumor volumes compared to vehicle control” value in assay [3] (d3: 9 mg/kg + QD: 3 mg/kg) and in assay [3] (d3: 30 mg/kg + QD: 10 mg/kg) was “significantly reduced” in each case.

On to `CC(O)Cn1c(=O)[nH]c(=O)c2c1nc(-c1ccc(Oc3ccc(OC(F)F)cc3)c(Cl)c1)n2C` (stereo not drawn) [Compound 178, 8-(3-chloro-4-(4-(difluoromethoxy)phenoxy)phenyl)-3-(2-hydroxypropyl)-7-methyl-3,7-dihydro-1H-purine-2,6-dione], for which the EC50 in assay [1] and in assay [2] was 0.5 to 1 µM throughout.

In the case of `CC(O)Cn1c(=O)[nH]c(=O)c2c1nc(-c1ccc(Oc3ccc(OC(F)(F)F)cc3)c(Cl)c1)n2C` (stereo not drawn) [Compound 179, 8-(3-chloro-4-(4-(trifluoromethoxy)phenoxy)phenyl)-3-(2-hydroxypropyl)-7-methyl-3,7-dihydro-1H-purine-2,6-dione], the EC50 – broadly, the concentration giving half of the maximal effect – is over 5 µM in assay [1] and 0.5 to 1 µM in assay [2].

As for `CC(O)Cn1c(=O)[nH]c(=O)c2c1nc(-c1ccc(Oc3ccc(Cl)cc3)c(Cl)c1)n2C` (stereo not drawn) [Compound 180, 8-(3-chloro-4-(4-chlorophenoxy)phenyl)-3-(2-hydroxypropyl)-7-methyl-3,7-dihydro-1H-purine-2,6-dione], the EC50 in assay [1] lay within 1 to 5 µM; in assay [2], 0.5 to 1 µM.

Regarding `COc1cccc(Oc2ccc(-c3nc4c(c(=O)[nH]c(=O)n4CC(C)O)n3C)cc2)c1` (stereo not drawn) [Compound 182, 3-(2-hydroxypropyl)-8-(4-(3-methoxyphenoxy)phenyl)-7-methyl-3,7-dihydro-1H-purine-2,6-dione], the EC50 in assay [1] and in assay [2] was 1 to 5 µM throughout.

As to `CC(O)Cn1c(=O)[nH]c(=O)c2c1nc(-c1ccc(Oc3cccc(Cl)c3)cc1)n2C` (stereo not drawn) [Compound 184, 8-(4-(3-chlorophenoxy)phenyl)-3-(2-hydroxypropyl)-7-methyl-3,7-dihydro-1H-purine-2,6-dione], the EC50 in assay [1] and in assay [2] was 1 to 5 µM each time.

Turning to `CC(O)Cn1c(=O)[nH]c(=O)c2c1nc(-c1ccc(Oc3ccc4ccccc4c3)cc1)n2C` (stereo not drawn) [Compound 186, 3-(2-hydroxypropyl)-7-methyl-8-(4-(naphthalen-2-yloxy)phenyl)-3,7-dihydro-1H-purine-2,6-dione], the EC50 in assay [1] and in assay [2] was 0.1 to 0.5 µM throughout.

With `CC(O)Cn1c(=O)[nH]c(=O)c2c1nc(-c1ccc(Oc3cccc(C#N)c3)cc1)n2C` (stereo not drawn) [Compound 187, 3-(4-(3-(2-hydroxypropyl)-7-methyl-2,6-dioxo-2,3,6,7-tetrahydro-1H-purin-8-yl)phenoxy)benzonitrile], the EC50 in assay [1] and in assay [2] was 1 to 5 µM throughout.

Take `CC(O)Cn1c(=O)[nH]c(=O)c2c1nc(-c1ccc(Oc3ccc(OC(F)(F)F)cc3)c(F)c1)n2C` (stereo not drawn) [Compound 188, 8-(3-fluoro-4-(4-(trifluoromethoxy)phenoxy)phenyl)-3-(2-hydroxypropyl)-7-methyl-3,7-dihydro-1H-purine-2,6-dione]: the figures for the EC50 in assay [1] and in assay [2] were 0.1 to 0.5 µM and 1 to 5 µM, respectively.

`CC(O)Cn1c(=O)[nH]c(=O)c2c1nc(-c1ccc(Oc3ccccc3OC(F)(F)F)cc1)n2C` (stereo not drawn) [Compound 190, 3-(2-hydroxypropyl)-7-methyl-8-(4-(2-(trifluoromethoxy)phenoxy)phenyl)-3,7-dihydro-1H-purine-2,6-dione]: the EC50 in assay [1] and in assay [2] was over 5 µM in each case.

As for `CC(O)Cn1c(=O)[nH]c(=O)c2c1nc(-c1ccc(Oc3cccc(OC(F)(F)F)c3)cc1)n2C` (stereo not drawn) [Compound 191, 3-(2-hydroxypropyl)-7-methyl-8-(4-(3-(trifluoromethoxy)phenoxy)phenyl)-3,7-dihydro-1H-purine-2,6-dione], the EC50 in assay [1] and in assay [2] was 0.5 to 1 µM throughout.

For the molecule `CC(O)Cn1c(=O)[nH]c(=O)c2c1nc(-c1ccc(Oc3ccc(OC(F)(F)F)cc3Cl)cc1)n2C` (stereo not drawn) [Compound 192, 8-(4-(2-chloro-4-(trifluoromethoxy)phenoxy)phenyl)-3-(2-hydroxypropyl)-7-methyl-3,7-dihydro-1H-purine-2,6-dione], the EC50 in assay [1] and in assay [2] was 1 to 5 µM throughout.

`CC(O)Cn1c(=O)[nH]c(=O)c2c1nc(-c1ccc(Oc3ccc(OC(F)(F)F)cc3F)cc1)n2C` (stereo not drawn) [Compound 193, 8-(4-(2-fluoro-4-(trifluoromethoxy)phenoxy)phenyl)-3-(2-hydroxypropyl)-7-methyl-3,7-dihydro-1H-purine-2,6-dione]: the EC50 in assay [1] and in assay [2] was 1 to 5 µM in each case.

For the molecule `CC(O)Cn1c(=O)[nH]c(=O)c2c1nc(-c1ccc(Oc3ccc(OC(F)(F)F)c(Cl)c3)cc1)n2C` (stereo not drawn) [Compound 194, 8-(4-(3-chloro-4-(trifluoromethoxy)phenoxy)phenyl)-3-(2-hydroxypropyl)-7-methyl-3,7-dihydro-1H-purine-2,6-dione], the EC50 in assay [1] fell in the range of 0.1 to 0.5 µM; in assay [2], 0.5 to 1 µM.

With `CC(O)Cn1c(=O)[nH]c(=O)c2c1nc(-c1ccc(Oc3ccc(F)c(C(F)(F)F)c3)cc1)n2C` (stereo not drawn) [Compound 195, 8-(4-(4-fluoro-3-(trifluoromethyl)phenoxy)phenyl)-3-(2-hydroxypropyl)-7-methyl-3,7-dihydro-1H-purine-2,6-dione], the concentration giving a half-maximal response (EC50) in assay [1] and in assay [2] was 1 to 5 µM each time.

Regarding `COc1cc(-c2nc3c(c(=O)[nH]c(=O)n3CC(C)O)n2C)ccc1Oc1ccc(OC(F)(F)F)cc1` (stereo not drawn) [Compound 196, 3-(2-hydroxypropyl)-8-(3-methoxy-4-(4-(trifluoromethoxy)phenoxy)phenyl)-7-methyl-3,7-dihydro-1H-purine-2,6-dione], the EC50 in assay [1] and in assay [2] was 1 to 5 µM each time.

As to `Cn1c(-c2ccc(OCc3ccccc3)c(OC(F)(F)F)c2)nc2c1c(=O)[nH]c(=O)n2CC(CO)C(F)F` (stereo not drawn) [Compound 198, 8-(4-(benzyloxy)-3-(trifluoromethoxy)phenyl)-3-(3,3-difluoro-2-(hydroxymethyl)propyl)-7-methyl-3,7-dihydro-1H-purine-2,6-dione], the EC50 was under 0.1 µM in assay [1] and 0.1 to 0.5 µM in assay [2].

Consider `Cn1c(-c2ccc(OCc3ccccc3)c(OC(F)(F)F)c2)nc2c1c(=O)[nH]c(=O)n2CC(O)C(F)F` (stereo not drawn) [Compound 199, 8-(4-(benzyloxy)-3-(trifluoromethoxy)phenyl)-3-(3,3-difluoro-2-hydroxypropyl)-7-methyl-3,7-dihydro-1H-purine-2,6-dione], for which the EC50 in assay [1] and in assay [2] was under 0.1 µM each time.

For `CC(O)Cn1c(=O)[nH]c(=O)c2c1nc(-c1ccc(OCCc3ccccc3)c(F)c1)n2C` (stereo not drawn) [Compound 200, 8-(3-fluoro-4-phenethoxyphenyl)-3-(2-hydroxypropyl)-7-methyl-3,7-dihydro-1H-purine-2,6-dione], the EC50 in assay [1] is 0.5 to 1 µM; in assay [2], 0.1 to 0.5 µM.

With `CC(O)Cn1c(=O)[nH]c(=O)c2c1nc(-c1ccc(OCCCc3ccccc3)c(F)c1)n2C` (stereo not drawn) [Compound 201, 8-(3-fluoro-4-(3-phenylpropoxy)phenyl)-3-(2-hydroxypropyl)-7-methyl-3,7-dihydro-1H-purine-2,6-dione], the EC50 in assay [1] and in assay [2] was 0.1 to 0.5 µM throughout.

These data come from patent EP4389749A1, “SUBSTITUTED 3,7-DIHYDRO-1H-PURINE-2,6-DIONES AND USE THEREOF” (invIOs GmbH, priority 2022, dated 2024).
